Laboratory results from publication PMC10447463, “Data-mining unveils structure–property–activity correlation of viral infectivity enhancing self-assembling peptides” (Nature Communications, 2023).

Legend:
[1] = system: HIV-1 infection of TZM-bl cells; assay: HIV-1 infectivity enhancement assay, β-galactosidase luminescence; assay type: cell-based; details: for Log10 Inf. rel. to EF-C: log10 of HIV-1 infection of TZM-bl cells relative to EF-C, Fig S15 source data, asymmetric std dev errors
[2] = assay type: physicochemical; details: STD prep
[3] = Turbidity, derived count rate of scattered light; assay type: physicochemical; details: for Log Count Rate: log of derived count rate
How it was run: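 Samples: 1 mg/mL in PBS pH 7.4 (from DMSO), 1 d at RT, then diluted in 1 mM KCl immediately before measurement. Triplicates, two independent runs averaged.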

[4] = Feb2021, 1.3 µM value relative to virus only (0 µM)
[5] = Feb2021, n-fold infectivity relative to EF-C
[6] = Feb2021, unrounded values of the 1.3 µM column
[7] = infectivity class (low / medium / high) of each library peptide, main list in c1-c6, same classes repeated in sub-lists of sequences containing the hydrophobicity/charge patterns P+,H0,P+,H0,P0,H0,P0, P+,H0,P0,H0,P0,H0,P0, P+,H0,P0,H0
[8] = derived count rate of scattered light, mean, std deviation in next column
[9] = Feb2021, Log10 of infectivity relative to EF-C
[10] = Feb2021, n-fold enhancement relative to EF-C
[11] = Feb2021 run, infectivity n-fold relative to virus alone
[12] = Feb2021 run, log10 of infectivity relative to EF-C
[13] = Feb2021 run, n-fold infectivity relative to EF-C
[14] = category 1 or 0 from count rate, key not given
[15] = derived count rate of scattered light, mean, std deviation in separate column
[16] = Feb2021, figures match the 1.3 µM column
[17] = Feb2021, infectivity relative to virus only
[18] = derived count rate of scattered light

In the case of CKYKYQY [KB2], the “n-fold to virus (Feb2021)” value [1, 4] is reported as 1.711, the “Log10 of Rel to EFC (Feb2021)” value ([1]; Feb2021, log10 of infectivity relative to EF-C) is reported as -1.39 and the “Rel-to EFC (Feb-2021)” value [1, 5] is reported as 0.04071. For the same substance, the “Absolute Infectivity / RLU /s (Feb2021)” value [1, 6] was 1083 RLU /s, the infectivity [1, 7] was “low” and the “Log10 Inf. rel. to EF-C” value [1] was -1.3903. For the same substance, the “TEM: 1= fibrils, 0= aggregates (micelle), 0.5 = aggregates and fibrils, -1 = nothing obersved, STD prep” value (shortened to “TEM: 1= fibrils, 0= aggregates (micelle)”) [2] was 0, the “Zeta Count Rate Category” value ([3]; category 1/0, no key printed) was 1 and the “Zeta Count Rate / kcps” value [3, 8] was 1061 kcps.
With QCKIKIQINM [CK2] the “n-fold to virus (Feb2021)” value [1, 4] was 16.64, the “Log10 of Rel to EFC (Feb2021)” value [1, 9] was -0.4024 and the “Rel-to EFC (Feb-2021)” value [1, 10] was 0.3959. The “Rel-to EFC (Feb-2021)” value [1, 5] was 0.3959, the “Absolute Infectivity / RLU /s (Feb2021)” value [1, 6] was 15250 RLU /s and the “n-fold to virus (Feb2021)” value [1, 11] was 16.64. For the same substance, the “Log10 of Rel to EFC (Feb2021)” value [1, 12] was -0.4024, the “Rel-to EFC (Feb-2021)” value [1, 13] was 0.3959 and the infectivity [1, 7] was “medium”. For the same substance, the “Log10 Inf. rel. to EF-C” value [1] was -0.4024, the “TEM: 1= fibrils, 0= aggregates (micelle)” value [2] was 1 and the “Zeta Count Rate Category” value ([3]; category 1/0, no key printed) was 1. For the same substance, the “Zeta Count Rate Category” value [3, 14] was 1, the “Zeta Count Rate / kcps” value [3, 8] was 9524 kcps and the “Zeta Count Rate / kcps” value [3, 15] was 9524 kcps.
For QCKIKQII [CK6], the “Log10 of Rel to EFC (Feb2021)” value [1, 9] was -2.189, the “Absolute Infectivity / RLU /s (Feb2021)” value [1, 16] was 206.7 RLU /s and the “n-fold to virus (Feb2021)” value [1, 17] was 0.2719. The “Rel-to EFC (Feb-2021)” value [1, 10] was 0.006472, the “Rel-to EFC (Feb-2021)” value [1, 5] was 0.006472 and the “n-fold to virus (Feb2021)” value [1, 11] was 0.2719. For the same substance, the “Log10 of Rel to EFC (Feb2021)” value [1, 12] was -2.189, the “Rel-to EFC (Feb-2021)” value [1, 13] was 0.006472 and the infectivity [1, 7] was “low”. The “Log10 Inf. rel. to EF-C” value [1] was -2.189, the “TEM: 1= fibrils, 0= aggregates (micelle)” value [2] was 1 and the “Zeta Count Rate Category” value ([3]; category 1 / 0, no key given) was 1. The “Zeta Count Rate Category” value [3, 14] was 1, the “Zeta Count Rate / kcps” value [3, 18] was 301 kcps and the “Zeta Count Rate / kcps” value [3, 8] was 301 kcps. For the same substance, the “Zeta Count Rate / kcps” value [3, 15] was 301 kcps.
In the case of CKFKFQFNM [BL3], the “n-fold to virus (Feb2021)” value [1, 4] is reported as 52.19, the “Log10 of Rel to EFC (Feb2021)” value [1, 9] is reported as 0.09417 and the “Rel-to EFC (Feb-2021)” value [1, 10] is reported as 1.242. For the same substance, the “Rel-to EFC (Feb-2021)” value [1, 5] was 1.242, the “Absolute Infectivity / RLU /s (Feb2021)” value [1, 6] was 28183.33333 RLU /s and the “n-fold to virus (Feb2021)” value [1, 11] was 52.19. For the same substance, the “Log10 of Rel to EFC (Feb2021)” value [1, 12] was 0.09417, the “Rel-to EFC (Feb-2021)” value [1, 13] was 1.242 and the “Rel-to EFC” value ([1]; Fig S8 panels B, D, infectivity enhancement relative to EF-C) was 1.242. For the same substance, the n-fold to virus ([1]; Fig S8 panels B, D, infectivity n-fold relative to virus alone) was 52.19, the infectivity [1, 7] was “high” and the infectivity ([1]; infectivity class (low / medium / high) of the peptide in the sequence-pattern analysis, Fig. S22-A4, class limits not given) was “high”. The “Log10 Inf. rel. to EF-C” value [1] was 0.09417, the “TEM: 1= fibrils, 0= aggregates (micelle)” value [2] was 1 and the “Log Count Rate” value ([3]; Fig S8 panels A, C, asymmetric log errors) was 3.347. For the same substance, the “Log Count Rate” value ([3]; Fig S8 panels B, D) was 3.347, the “Count Rate” value ([3]; Fig S8 panels B, D, turbidity, derived count rate of scattered light) was 2223.63 and the “Zeta Count Rate Category” value ([3]; category 1/0, no key printed) was 1. The “Zeta Count Rate Category” value [3, 14] was 1, the “Zeta Count Rate / kcps” value [3, 8] was 2224 kcps and the “Zeta Count Rate / kcps” value [3, 15] was 2224 kcps.
In the case of RGDCKIKIQINM [TM45], the “Log10 of Rel to EFC (Feb2021)” value [1, 9] is reported as -0.6272, the “Rel-to EFC (Feb-2021)” value [1, 10] is reported as 0.2359 and the “n-fold to virus (Feb2021)” value [1, 11] is reported as 9.913. The “Log10 of Rel to EFC (Feb2021)” value [1, 12] was -0.6272, the “Rel-to EFC (Feb-2021)” value [1, 13] was 0.2359 and the infectivity [1, 7] was “medium”. The “Log10 Inf. rel. to EF-C” value [1] was -0.6272, the “TEM: 1= fibrils, 0= aggregates (micelle)” value [2] was 1 and the “Zeta Count Rate Category” value [3, 14] was 1. For the same substance, the “Zeta Count Rate / kcps” value [3, 8] was 1623 kcps and the “Zeta Count Rate / kcps” value [3, 15] was 1623 kcps.
In the case of KFKFQFW [TM71], the “Log10 of Rel to EFC (Feb2021)” value [1, 9] is reported as -0.7899, the “Absolute Infectivity / RLU /s (Feb2021)” value [1, 16] is reported as 4953 RLU /s and the “Rel-to EFC (Feb-2021)” value ([1]; Feb2021, infectivity enhancement relative to EF-C) is reported as 0.1622. The “n-fold to virus (Feb2021)” value [1, 17] was 6.817, the “Rel-to EFC (Feb-2021)” value [1, 5] was 0.1622 and the “n-fold to virus (Feb2021)” value [1, 11] was 6.817. For the same substance, the “Log10 of Rel to EFC (Feb2021)” value [1, 12] was -0.7899, the “Rel-to EFC (Feb-2021)” value [1, 13] was 0.1622 and the infectivity [1, 7] was “medium”. For the same substance, the “Log10 Inf. rel. to EF-C” value [1] was -0.7899, the “TEM: 1= fibrils, 0= aggregates (micelle)” value [2] was 1 and the “Zeta Count Rate Category” value ([3]; category 1 / 0, no key given) was 1. For the same substance, the “Zeta Count Rate Category” value ([3]; category 1 or 0 derived from the count rate, key not given) was 1, the “Zeta Count Rate / kcps” value [3, 18] was 121.9 kcps and the “Zeta Count Rate / kcps” value [3, 8] was 121.9 kcps. For the same substance, the “Zeta Count Rate / kcps” value [3, 15] was 121.9 kcps.
